16 molecules from ChEMBL document CHEMBL1148812, “4-[omega-[4-arylpiperazin-1-yl]alkoxy]phenyl)imidazo[1,2-a]pyridine derivatives: fluorescent high-affinity dopamine D3 receptor ligands as potential probes for receptor visualization” (J Med Chem, 2007) can be followed below.

Assay [1] deals with T1, D(2) dopamine receptor (Homo sapiens, UniProt P14416).
The next assay addresses D(3) dopamine receptor (Homo sapiens, UniProt P35462).
For assay [2], the target named is T1, D(2) dopamine receptor. The assay can be described thus: Displacement of [3H]spiroperidol from human cloned dopamine D2L receptor at 10 uM.

T1 sequence (P14416 whole entry): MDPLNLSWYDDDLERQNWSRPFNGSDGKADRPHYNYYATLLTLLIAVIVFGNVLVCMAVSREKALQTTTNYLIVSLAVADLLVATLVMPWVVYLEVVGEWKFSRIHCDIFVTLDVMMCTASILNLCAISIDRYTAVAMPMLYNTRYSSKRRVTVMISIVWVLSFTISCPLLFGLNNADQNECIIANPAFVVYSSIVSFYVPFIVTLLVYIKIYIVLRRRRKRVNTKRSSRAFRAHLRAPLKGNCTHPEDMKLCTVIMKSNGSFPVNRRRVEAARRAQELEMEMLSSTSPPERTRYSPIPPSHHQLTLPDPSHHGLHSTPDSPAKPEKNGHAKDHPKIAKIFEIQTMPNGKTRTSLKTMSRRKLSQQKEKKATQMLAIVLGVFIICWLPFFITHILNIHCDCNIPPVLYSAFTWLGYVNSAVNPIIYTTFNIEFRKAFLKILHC
Sequence of D(3) dopamine receptor (P35462 whole entry): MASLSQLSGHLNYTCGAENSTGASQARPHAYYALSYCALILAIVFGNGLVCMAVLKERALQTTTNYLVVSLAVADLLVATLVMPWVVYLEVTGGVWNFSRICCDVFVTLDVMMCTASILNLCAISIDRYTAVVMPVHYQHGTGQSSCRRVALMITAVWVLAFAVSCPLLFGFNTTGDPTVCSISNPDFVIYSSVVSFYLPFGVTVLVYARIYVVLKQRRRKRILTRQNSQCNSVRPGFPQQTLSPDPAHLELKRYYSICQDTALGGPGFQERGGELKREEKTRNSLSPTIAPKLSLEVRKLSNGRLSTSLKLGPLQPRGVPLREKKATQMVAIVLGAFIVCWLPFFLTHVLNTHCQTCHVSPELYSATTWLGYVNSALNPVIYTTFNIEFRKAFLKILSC
Description for D(3) dopamine receptor: Displacement of [3H]spiroperidol from human cloned dopamine D3 receptor

As usually defined, the Ki is a measure of affinity in units of concentration, obtained from inhibition or displacement. Take `Cc1ccn2cc(-c3ccc(OCCCN4CCN(c5cccc(Cl)c5Cl)CC4)cc3)nc2c1`: the values for the inhibition constant Ki at D(2) dopamine receptor [1] and on D(3) dopamine receptor were 83 nM and 8 nM, respectively.

For `Cc1ccc2nc(-c3ccc(OCCCCN4CCN(c5cccc(Cl)c5Cl)CC4)cc3)cn2c1`, the inhibition constant Ki at D(2) dopamine receptor [1] was 149 nM; at D(3) dopamine receptor it was 8 nM.

Broadly, the inhibition is the percentage by which the read-out fell short of the control. In turn, `Cc1ccc2nc(-c3ccc(OCCCN4CCN(c5cccc(Cl)c5Cl)CC4)cc3)cn2c1` showed an inhibition at D(2) dopamine receptor [2] of 31%. Besides, the inhibition constant (Ki) at D(3) dopamine receptor is 28.9 nM.

On to `COc1ccccc1N1CCN(CCCOc2ccc(-c3cn4cccc(C)c4n3)cc2)CC1`, for which the Ki is 49 nM on D(2) dopamine receptor [1] and 50 nM at D(3) dopamine receptor.

For the molecule `Clc1cccc(N2CCN(CCCOc3ccc(-c4cn5ccccc5n4)cc3)CC2)c1Cl`, the values for the Ki on D(2) dopamine receptor [1] and on D(3) dopamine receptor were 44 nM and 156 nM, respectively.

Consider `COc1ccccc1N1CCN(CCCCOc2ccc(-c3cn4ccccc4n3)cc2)CC1`, for which the Ki on D(2) dopamine receptor [1] amounted to 179 nM; at D(3) dopamine receptor, 0.72 nM.

As for `COc1ccccc1N1CCN(CCCOc2ccc(-c3cn4ccc(C)cc4n3)cc2)CC1`, the Ki on D(2) dopamine receptor [1] is 78 nM; on D(3) dopamine receptor, 71 nM.

Regarding `Clc1cccc(N2CCN(CCCCOc3ccc(-c4cn5ccccc5n4)cc3)CC2)c1Cl`, the Ki on D(2) dopamine receptor [1] was found to be 68 nM; at D(3) dopamine receptor it was 38 nM.

For `COc1ccccc1N1CCN(CCCOc2ccc(-c3cn4cc(C)ccc4n3)cc2)CC1`, the Ki on D(2) dopamine receptor [1] is 78 nM; on D(3) dopamine receptor, 176 nM.

On to `Cc1cccn2cc(-c3ccc(OCCCCN4CCN(c5cccc(Cl)c5Cl)CC4)cc3)nc12`, for which the inhibitory constant (Ki) came to 560 nM at D(2) dopamine receptor [1] and 54.4 nM at D(3) dopamine receptor.

On to `COc1ccccc1N1CCN(CCCCOc2ccc(-c3cn4ccc(C)cc4n3)cc2)CC1`, for which the inhibitory constant (Ki) on D(2) dopamine receptor [1] was 52 nM; on D(3) dopamine receptor, 40 nM.

In the case of `Cc1cccn2cc(-c3ccc(OCCCN4CCN(c5cccc(Cl)c5Cl)CC4)cc3)nc12`, the Ki on D(2) dopamine receptor [1] was 125 nM; at D(3) dopamine receptor it was 225 nM.

Turning to `COc1ccccc1N1CCN(CCCCOc2ccc(-c3cn4cc(C)ccc4n3)cc2)CC1`, the values for the Ki at D(2) dopamine receptor [1] and at D(3) dopamine receptor were 47 nM and 146 nM, respectively.

Consider `Cc1ccn2cc(-c3ccc(OCCCCN4CCN(c5cccc(Cl)c5Cl)CC4)cc3)nc2c1`, for which the Ki worked out at 111 nM on D(2) dopamine receptor [1] and 60 nM on D(3) dopamine receptor.

On to `COc1ccccc1N1CCN(CCCOc2ccc(-c3cn4ccccc4n3)cc2)CC1`, for which the values for the inhibitory constant (Ki) at D(2) dopamine receptor [1] and at D(3) dopamine receptor were 49 nM and 1.6 nM, respectively.

As for `COc1ccccc1N1CCN(CCCCOc2ccc(-c3cn4cccc(C)c4n3)cc2)CC1`, the Ki on D(2) dopamine receptor [1] came out at 159 nM; at D(3) dopamine receptor it was 385 nM.
